{
  "source": "patent US7384965B2",
  "about": "“Fused heterocyclic derivatives as PPAR modulators” (Eli Lilly and Company, priority 2003, dated 2008)",
  "data": [
    {"values": [
      {"compound": "O=C(O)Cc1cccc(SCc2ccnc3oc(-c4ccc(C(F)(F)F)cc4)nc23)c1", "note": "[Example 99, 3-[2-(4-Trifluoromethylphenyl)oxazolo[5,4-b]pyridin-7-ylmethylsulfanyl]phenylacetic Acid]", "melting point": "164 to 166 °C"},
      {"compound": "CCc1cc(SCc2ccnc3[nH]c(-c4ccc(C(F)(F)F)cc4)nc23)ccc1OCC(=O)O", "note": "[Example 105, 2-Ethyl-4-[2-(4-trifluoromethylphenyl)-3H-imidazo[4,5-b]pyridin-7-ylmethylsulfanyl]phenoxyacetic Acid]", "melting point": "188 to 190 °C"},
      {"compound": "Cc1cc(SCc2cccc3[nH]c(-c4ccc(C(F)(F)F)cc4)nc23)ccc1CCC(=O)O", "note": "[Example 86, 3-{2-Methyl-4-[2-(4-trifluoromethylphenyl)-1H-benzoimidazol-4-ylmethylsulfanyl]phenyl}propionic Acid]", "melting point": "214 to 216 °C"},
      {"compound": "O=C(O)Cc1cccc(SCc2cccc3[nH]c(-c4ccc(C(F)(F)F)cc4)nc23)c1", "note": "[Example 88, 3-[2-(4-Trifluoromethylphenyl)-1H-benzoimidazol-4-ylmethylsulfanyl]phenylacetic Acid]", "melting point": "180 to 183 °C"},
      {"compound": "Cc1cc(SCc2cccc3[nH]c(-c4ccc(C(F)(F)F)cc4)cc23)ccc1OCC(=O)O", "note": "[Example 93, 2-Methyl-4-[2-(4-trifluoromethylphenyl)-1H-indol-4-ylmethylsulfanyl]phenoxyacetic Acid]", "melting point": "85 to 88 °C"},
      {"compound": "O=C(O)Cc1csc2cc(SCc3cccc4sc(-c5ccc(C(F)(F)F)cc5)nc34)ccc12", "note": "[Example 43]", "melting point": "168 to 170 °C"},
      {"compound": "CCc1cc(OC(C)c2cccc3nc(-c4ccc(C(F)(F)F)cc4)oc23)ccc1CCC(=O)O", "note": "(racemic) [Example 84, (+/−)-3-(2-Ethyl-4-{1-[2-(4-trifluoromethylphenyl)benzooxazol-7-yl]ethoxy}phenyl)propionic Acid]", "melting point": "60 to 63 °C"},
      {"compound": "Cc1cc(SC(C)(C)c2cccc3nc(-c4ccc(C(F)(F)F)cc4)oc23)ccc1CCC(=O)O", "note": "[Example 76, 3-(2-Methyl-4-{1-methyl-1-[2-(4-trifluoromethylphenyl)benzooxazol-7-yl]ethylsulfanyl}phenyl)propionic Acid]", "melting point": "104 to 107 °C"},
      {"compound": "O=C(O)Cc1cccc(SCc2cccc3nc(-c4ccc(C(F)(F)F)cc4)oc23)c1", "note": "[Example 73, 3-[2-(4-Trifluoromethylphenyl)benzooxazol-7-ylmethylsulfanyl]phenylacetic Acid]", "melting point": "147 to 149 °C"},
      {"compound": "O=C(O)Cc1cccc(SCc2cccc3sc(-c4ccc(C(F)(F)F)cc4)nc23)c1", "note": "[Example 41]", "melting point": "140 to 143 °C"},
      {"compound": "Cc1cc(SCc2cccc3nc(-c4ccc(C(F)(F)F)cc4)sc23)ccc1OCC(=O)O", "note": "[Example 44, 2-Methyl-4-[2-(4-trifluoromethylphenyl)benzothiazol-7-ylmethylsulfanyl]phenoxyacetic Acid]", "melting point": "193 to 196 °C"},
      {"compound": "Cc1cc(SC(C)c2cccc3nc(-c4ccc(C(F)(F)F)cc4)oc23)ccc1OCC(=O)O", "note": "(racemic) [Example 79, (+/−)-2-Methyl-4-{1-[2-(4-trifluoromethylphenyl)benzooxazol-7-yl]ethylsulfanyl}phenoxyacetic Acid]", "melting point": "134 to 138 °C"},
      {"compound": "CCc1cc(SCc2ccnc3oc(-c4ccc(C(F)(F)F)cc4)nc23)ccc1OCC(=O)O", "note": "[Example 97, 2-Ethyl-4-[2-(4-trifluoromethylphenyl)oxazolo[5,4-b]pyridin-7-ylmethylsulfanyl]phenoxyacetic Acid]", "melting point": "59 to 62 °C"},
      {"compound": "Cc1cc(SCc2ccc3nc(-c4ccc(C(F)(F)F)cc4)sc3c2)ccc1CCC(=O)O", "note": "[Example 58, 3-{2-Methyl-4-[2-(4-trifluoromethylphenyl)benzothiazol-6-ylmethylsulfanyl]phenyl}propionic Acid]", "melting point": "194 to 196 °C"},
      {"compound": "CCc1cc(SC(C)c2cccc3nc(-c4ccc(C(F)(F)F)cc4)oc23)ccc1OCC(=O)O", "note": "(racemic) [Example 81, (+/−)-2-Ethyl-4-{1-[2-(4-trifluoromethylphenyl)benzooxazol-7-yl]ethylsulfanyl}phenoxyacetic Acid]", "melting point": "172 to 175 °C"},
      {"compound": "CCc1cc(SCc2cccc3nc(-c4ccc(C(F)(F)F)cc4)sc23)ccc1OCC(=O)O", "note": "[Example 45, 2-Ethyl-4-[2-(4-trifluoromethylphenyl)benzothiazol-7-ylmethylsulfanyl]phenoxyacetic Acid]", "melting point": "160 to 164 °C"},
      {"compound": "Cc1cc(SC(C)c2ccc3nc(-c4ccc(C(F)(F)F)cc4)sc3c2)ccc1OCC(=O)O", "note": "(racemic) [Example 62, (+/−)-2-Methyl-4-{1-[2-(4-trifluoromethylphenyl)benzothiazol-6-yl]ethylsulfanyl}phenoxyacetic Acid]", "melting point": "170 to 173 °C"},
      {"compound": "O=C(O)Cc1csc2cc(SCc3ccnc4oc(-c5ccc(C(F)(F)F)cc5)nc34)ccc12", "note": "[Example 98, 6-[2-(4-Trifluoromethylphenyl)oxazolo[5,4-b]pyridine-7-ylmethylsulfanyl]benzo[b]thiophen-3-ylacetic Acid]", "melting point": "203 to 205 °C"},
      {"compound": "Cc1cc(SCc2cccc3nc(-c4ccc(C(F)(F)F)cc4)oc23)ccc1CCC(=O)O", "note": "[Example 69, 3-{2-Methyl-4-[2-(4-trifluoromethylphenyl)benzooxazol-7-ylmethylsulfanyl]phenyl}propionic Acid]", "melting point": "155 to 157 °C"},
      {"compound": "Cc1cc(SCc2cccc3c2nc(-c2ccc(C(F)(F)F)cc2)n3C)ccc1CCC(=O)O", "note": "[Example 90, 3-{2-Methyl-4-[1-methyl-2-(4-trifluoromethylphenyl)-1H-benzoimidazol-4-ylmethylsulfanyl]phenyl}propionic Acid]", "melting point": "168 to 170 °C"},
      {"compound": "CC(Sc1ccc2c(CC(=O)O)csc2c1)c1cccc2nc(-c3ccc(C(F)(F)F)cc3)oc12", "note": "(racemic) [Example 82, (+/−)-6-{1-[2-(4-Trifluoromethylphenyl)benzooxazol-7-yl]ethylsulfanyl}benzo[b]thiophen-3-ylacetic Acid]", "melting point": "195 to 198 °C"},
      {"compound": "Cc1cc(SCc2cccc3[nH]c(-c4ccc(C(F)(F)F)cc4)nc23)ccc1OCC(=O)O", "note": "[Example 85, 2-Methyl-4-[2-(4-trifluoromethylphenyl)-1H-benzoimidazol-4-ylmethylsulfanyl]phenoxyacetic Acid]", "melting point": "238 to 240 °C (dec.)"},
      {"compound": "Cc1cc(SCc2cccc3nc(-c4ccc(C(F)(F)F)cc4)oc23)ccc1OCC(=O)O", "note": "[Example 68, 2-Methyl-4-[2-(4-trifluoromethylphenyl)-benzooxazol-7-ylmethylsulfanyl]-phenoxyacetic Acid]", "melting point": "180 to 182 °C"},
      {"compound": "Cc1cc(OC(C)c2cccc3nc(-c4ccc(C(F)(F)F)cc4)oc23)ccc1CCC(=O)O", "note": "(racemic) [Example 83, (+/−)-3-(2-Methyl-4-{1-[2-(4-trifluoromethylphenyl)benzooxazol-7-yl]ethoxy}phenyl)propionic Acid]", "melting point": "142 to 144 °C"},
      {"compound": "Cc1cc(SCc2ccc3nc(-c4ccc(C(F)(F)F)cc4)sc3c2)ccc1OCC(=O)O", "note": "[Example 57, 2-Methyl-4-[2-(4-trifluoromethylphenyl)benzothiazol-6-ylmethylsulfanyl]phenoxyacetic Acid]", "melting point": "176 to 177 °C"},
      {"compound": "Cc1cc(SCc2cccc3oc(-c4ccc(C(F)(F)F)cc4)nc23)ccc1CCC(=O)O", "note": "[Example 66, 3-2-Methyl-4-[2-(4-trifluoromethylphenyl)benzooxazol-4-ylmethylsulfanyl]phenylpropionic Acid]", "melting point": "181 to 183 °C"},
      {"compound": "CC(C)(Sc1ccc2c(CC(=O)O)csc2c1)c1cccc2nc(-c3ccc(C(F)(F)F)cc3)oc12", "note": "[Example 78, 6-{1-Methyl-1-[2-(4-trifluoromethylphenyl)benzooxazol-7-yl]ethylsulfanyl}benzo[b]thiophen-3-ylacetic Acid]", "melting point": "110 to 113 °C"},
      {"compound": "CCc1cc(SCc2cccc3sc(-c4ccc(C(F)(F)F)cc4)nc23)ccc1OCC(=O)O", "note": "[Example 40]", "melting point": "89 to 92 °C"},
      {"compound": "Cc1cc(SCc2ccnc3c2nc(-c2ccc(C(F)(F)F)cc2)n3C)ccc1CCC(=O)O", "note": "[Example 108, 3-{2-Methyl-4-[3-methyl-2-(4-trifluoromethylphenyl)-3H-imidazo[4,5-b]pyridin-7-ylmethylsulfanyl]phenyl}propionic Acid]", "melting point": "89 to 91 °C"},
      {"compound": "CCc1cc(SCc2cccc3[nH]c(-c4ccc(C(F)(F)F)cc4)nc23)ccc1OCC(=O)O", "note": "[Example 87, 2-Ethyl-4-[2-(4-trifluoromethylphenyl)-1H-benzoimidazol-4-ylmethylsulfanyl]phenoxyacetic Acid]", "melting point": "223 °C (dec.)"},
      {"compound": "Cc1cc(OCc2ccc3sc(-c4ccc(C(F)(F)F)cc4)nc3c2)ccc1CCC(=O)O", "note": "[Example 54, 3-{2-Methyl-4-[2-(4-trifluoromethylphenyl)benzothiazol-5-ylmethoxy]phenyl}propionic Acid]", "melting point": "174 to 176 °C"},
      {"compound": "Cc1cc(SC(C)c2cccc3nc(-c4ccc(C(F)(F)F)cc4)oc23)ccc1CCC(=O)O", "note": "(racemic) [Example 80, (+/−)-3-(2-Methyl-4-{1-[2-(4-trifluoromethylphenyl)benzooxazol-7-yl]ethylsulfanyl}phenyl)propionic Acid]", "melting point": "128 to 130 °C"},
      {"compound": "Cc1cc(SCCc2ccc3sc(-c4ccc(C(F)(F)F)cc4)nc3c2)ccc1CCC(=O)O", "note": "[Example 56, 3-(2-Methyl-4-{2-[2-(4-trifluoromethylphenyl)benzothiazol-5-yl]ethylsulfanyl}phenyl)propionic Acid]", "melting point": "108 to 110 °C"}
    ]}
  ]
}
